One block for each compound: values may come before it.
Assays:
Hepatitis B virus [1] = assay: Antiviral activity against Hepatitis B virus infected in HePAD38 cells; format: functional, organism-based
Hepatitis B virus [2] = assay: Ratio of EC50 for antiviral activity against HBV harboring core protein V124I mutant to EC50 for antiviral activity against HBV harboring wild type core protein; format: functional
Hepatitis B virus [3] = assay: Ratio of EC50 for antiviral activity against HBV harboring core protein T33Q mutant to EC50 for antiviral activity against HBV harboring wild type core protein; format: functional
Hepatitis B virus [4] = assay: Ratio of EC50 for antiviral activity against HBV harboring core protein P25G mutant to EC50 for antiviral activity against HBV harboring wild type core protein; format: functional
Hepatitis B virus [5] = assay: Antiviral activity against HBV harboring core protein V124F mutant; format: functional, organism-based
Hepatitis B virus [6] = assay: Ratio of EC50 for antiviral activity against HBV harboring core protein T33N mutant to EC50 for antiviral activity against HBV harboring wild type core protein; format: functional
[7] = Oral bioavailability in mouse; format: ADME, organism-based; conditions: in vivo
Hepatitis B virus [8] = assay: Antiviral activity against Hepatitis B virus harboring rtL180M/M204V/N236T transfected in HepG2 cells; format: functional, organism-based
Hepatitis B virus [9] = assay: Antiviral activity against Hepatitis B virus harboring rtA181V/N236T transfected in HepG2 cells; format: functional, organism-based
Hepatitis B virus [10] = assay: Antiviral activity against Hepatitis B virus harboring rtL180M/M204V transfected in HepG2 cells; format: functional, organism-based
Hepatitis B virus [11] = assay: Antiviral activity against Hepatitis B virus harboring rtA181V transfected in HepG2 cells; format: functional, organism-based
[12] = Selectivity index, ratio of CC50 for human HePAD38 cells to EC50 for antiviral activity against Hepatitis B virus infected in HePAD38 cells; format: toxicity, cell-based; conditions: read-out: Ratio CC50/EC50
Hepatitis B virus [13] = assay: Antiviral activity against Hepatitis B virus infected in HepG2.2.15 cells; format: functional, organism-based
[14] = Cytotoxicity against human HePAD38 cells; format: toxicity, cell-based
Hepatitis B virus [15] = assay: Antiviral activity against HBV harboring core protein T33Q mutant; format: functional, organism-based
Hepatitis B virus [16] = assay: Antiviral activity against HBV harboring core protein P25A mutant; format: functional, organism-based
Hepatitis B virus [17] = assay: Antiviral activity against HBV harboring core protein T33N mutant; format: functional, organism-based
Hepatitis B virus [18] = assay: Ratio of EC50 for antiviral activity against HBV harboring core protein P25S mutant to EC50 for antiviral activity against HBV harboring wild type core protein; format: functional
Hepatitis B virus [19] = assay: Ratio of EC50 for antiviral activity against HBV harboring core protein T33S mutant to EC50 for antiviral activity against HBV harboring wild type core protein; format: functional
Hepatitis B virus [20] = assay: Antiviral activity against HBV harboring wild type core protein; format: functional, organism-based
Hepatitis B virus [21] = assay: Antiviral activity against Hepatitis B virus harboring rtN236T transfected in HepG2 cells; format: functional, organism-based
Hepatitis B virus [22] = assay: Ratio of EC50 for antiviral activity against HBV harboring core protein P25A mutant to EC50 for antiviral activity against HBV harboring wild type core protein; format: functional
Hepatitis B virus [23] = assay: Antiviral activity against HBV harboring core protein T33S mutant; format: functional, organism-based
Hepatitis B virus [24] = assay: Antiviral activity against HBV harboring core protein P25S mutant; format: functional, organism-based
Hepatitis B virus [25] = assay: Ratio of EC50 for antiviral activity against HBV harboring core protein V124F mutant to EC50 for antiviral activity against HBV harboring wild type core protein; format: functional
Hepatitis B virus [26] = assay: Antiviral activity against HBV harboring core protein P25G mutant; format: functional, organism-based
Hepatitis B virus [27] = assay: Antiviral activity against HBV harboring core protein V124I mutant; format: functional, organism-based
[28] = Cytotoxicity against human HepG2.2.15 cells; format: toxicity, cell-based, HepG2 2.2.15
Hepatitis B virus [29] = assay: Antiviral activity against Hepatitis B virus assessed as inhibition of nucleocapsid assembly; format: functional, organism-based
[30] = Cytotoxicity against human HepBHAe82 cells; format: toxicity, cell-based
[31] = Cytotoxicity against mouse AML12HBV10; format: toxicity, cell-based; conditions: AML12HBV10 cells
Hepatitis B virus [32] = assay: Antiviral activity against Hepatitis B virus infected in HepDE19 cells; format: functional, organism-based
Hepatitis B virus [33] = assay: Antiviral activity against Hepatitis B virus infected in primary hepatocytes; format: functional, organism-based; conditions: Hepatocyte
[34] = Cytotoxicity against human HepDE19 cells; format: functional
Hepatitis B virus [35] = assay: Antiviral activity against Hepatitis B virus infected in HepBHAe82 cells; format: functional, organism-based
[36] = Cytotoxicity in human primary hepatocytes; format: toxicity, cell-based, Hepatocyte
Hepatitis B virus [37] = assay: Antiviral activity against Hepatitis B virus infected in AML12HBV10 cells; format: functional, organism-based
Hepatitis B virus [38] = assay: Antiviral activity against Hepatitis B virus infected in HepDES19 cells; format: functional, organism-based
[39] = Cytotoxicity against human HepDES19 cells; format: toxicity, cell-based
[40] = Half life in mouse plasma; format: ADME, cell-free
[41] = Half life in dog plasma; format: ADME, cell-free, Canis lupus familiaris
[42] = Half life in human plasma; format: ADME, cell-free
Hepatitis B virus [43] = assay: Antiviral activity against Hepatitis B virus infected in HePAD38 cells assessed as reduction in HBeAg production; format: functional, organism-based
[44] = Oral bioavailability in CD1 mouse; format: ADME, organism-based; conditions: in vivo

Compound: Cn1cc2c(c1C(=O)Nc1cc(F)c(F)c(F)c1)OCC1CN(C(=O)c3ncco3)CC1NS2(=O)=O (stereo unspecified)
EC50 (Hepatitis B virus [1]): < 1000 nM

Compound: O=C(Nc1cc(F)c(F)c(F)c1)c1ccc(F)c(S(=O)(=O)N2CCC(O)CC2)c1
Ratio (Hepatitis B virus [2]): 0.1
Ratio (Hepatitis B virus [3]): >13
Ratio (Hepatitis B virus [4]): 12.2
EC50 (Hepatitis B virus [5]): 289 nM
Ratio (Hepatitis B virus [6]): >13
bioavailability [7]: ≥ 84.6%
EC50 (Hepatitis B virus [8]): 820 nM
EC50 (Hepatitis B virus [9]): 820 nM
EC50 (Hepatitis B virus [10]): 820 nM
EC50 (Hepatitis B virus [11]): 820 nM
selectivity ratio [12]: 15.6
EC50 (Hepatitis B virus [13]): 400 nM
CC50 [14]: 5140 nM
EC50 (Hepatitis B virus [15]): > 5000 nM
EC50 (Hepatitis B virus [16]): 895 nM
EC50 (Hepatitis B virus [17]): > 5000 nM
Ratio (Hepatitis B virus [18]): 2.4
EC50 (Hepatitis B virus [1]): 330 nM
Ratio (Hepatitis B virus [19]): 2.3
EC50 (Hepatitis B virus [20]): 390 nM
EC50 (Hepatitis B virus [21]): 820 nM
Ratio (Hepatitis B virus [22]): 2.3
EC50 (Hepatitis B virus [23]): 878 nM
EC50 (Hepatitis B virus [24]): 930 nM
Ratio (Hepatitis B virus [25]): 0.7
EC50 (Hepatitis B virus [26]): 4750 nM
EC50 (Hepatitis B virus [27]): 42 nM

Compound: O=C(Nc1cc(F)c(F)c(F)c1)c1ccc(F)c(S(=O)(=O)N2CCC(=NO)CC2)c1
selectivity ratio [12]: 35.3
CC50 [14]: 7410 nM
EC50 (Hepatitis B virus [1]): 210 nM

Compound: COC(=O)C1=C(CN2CC(F)(F)C[C@H]2C(=O)O)NC(c2nccs2)=N[C@H]1c1ccc(F)cc1Cl
Ratio (Hepatitis B virus [2]): 0.1
Ratio (Hepatitis B virus [3]): 21.7
Ratio (Hepatitis B virus [4]): 15.2
EC50 (Hepatitis B virus [5]): 1090 nM
Ratio (Hepatitis B virus [6]): 38.1
EC50 (Hepatitis B virus [15]): 1970 nM
EC50 (Hepatitis B virus [16]): 735 nM
EC50 (Hepatitis B virus [17]): 3470 nM
Ratio (Hepatitis B virus [18]): 9.9
Ratio (Hepatitis B virus [19]): 1.8
EC50 (Hepatitis B virus [20]): 91 nM
Ratio (Hepatitis B virus [22]): 8.1
EC50 (Hepatitis B virus [23]): 162 nM
EC50 (Hepatitis B virus [24]): 902 nM
Ratio (Hepatitis B virus [25]): 11.9
EC50 (Hepatitis B virus [26]): 1380 nM
EC50 (Hepatitis B virus [27]): 9 nM

Compound: COC(=O)C1=C(C)NC(c2ncc(F)cc2F)=N[C@H]1c1ccc(F)cc1Cl
Ratio (Hepatitis B virus [2]): 0.09
Ratio (Hepatitis B virus [3]): 25
Ratio (Hepatitis B virus [4]): >67
EC50 (Hepatitis B virus [5]): 2330 nM
Ratio (Hepatitis B virus [6]): >67
EC50 (Hepatitis B virus [15]): 3720 nM
EC50 (Hepatitis B virus [16]): 3450 nM
EC50 (Hepatitis B virus [17]): > 10000 nM
Ratio (Hepatitis B virus [18]): 28.7
Ratio (Hepatitis B virus [19]): 3
EC50 (Hepatitis B virus [20]): 149 nM
Ratio (Hepatitis B virus [22]): 23.2
EC50 (Hepatitis B virus [23]): 451 nM
EC50 (Hepatitis B virus [24]): 4280 nM
Ratio (Hepatitis B virus [25]): 15.7
EC50 (Hepatitis B virus [26]): > 10000 nM
EC50 (Hepatitis B virus [27]): 13 nM

Compound: CC(NS(=O)(=O)c1c2ncccc2c(C(=O)Nc2ccc(F)c(F)c2)n1C)C(F)(F)F (stereo unspecified)
CC50 [28]: > 30000 nM
EC50 (Hepatitis B virus [13]): 0.1 nM
IC50 (Hepatitis B virus [29]): < 1000 nM

Compound: CC[C@@H](C)NS(=O)(=O)c1ccc(F)c(C(=O)Nc2ccc(F)c(F)c2)c1
CC50 [28]: > 10000 nM
CC50 [30]: > 10000 nM
CC50 [31]: > 10000 nM
EC50 (Hepatitis B virus [32]): 80 nM
EC90 (Hepatitis B virus [32]): 330 nM
EC50 (Hepatitis B virus [33]): 80 nM
EC90 (Hepatitis B virus [33]): 330 nM
CC50 [34]: > 10000 nM
EC50 (Hepatitis B virus [13]): 80 nM
EC90 (Hepatitis B virus [13]): 330 nM
EC50 (Hepatitis B virus [35]): 80 nM
EC90 (Hepatitis B virus [35]): 330 nM
CC50 [36]: > 10000 nM
EC50 (Hepatitis B virus [37]): 80 nM
EC90 (Hepatitis B virus [37]): 330 nM

Compound: O=C(Nc1cc(F)c(F)c(F)c1)c1ccc(F)c(S(=O)(=O)NC2CCC(O)CC2)c1 (stereo unspecified)
selectivity ratio [12]: 42.7
CC50 [14]: 10700 nM
EC50 (Hepatitis B virus [1]): 250 nM

Compound: CCC(C)NS(=O)(=O)c1ccc(F)c(C(=O)Nc2ccc(F)c(F)c2)c1 (stereo unspecified)
CC50 [31]: > 50000 nM
IC50 (Hepatitis B virus [38]): 100 nM
CC50 [39]: > 50000 nM
IC50 (Hepatitis B virus [37]): 300 nM

Compound: C#CCNC(=O)C(=O)c1c(C)c(C(=O)Nc2ccc(F)c(F)c2)n(C)c1C
half-life [40]: > 24 h
half-life [41]: > 24 h
half-life [42]: > 24 h
IC50 (Hepatitis B virus [43]): 3 nM
bioavailability [44]: > 100%
CC50 [36]: > 10000 nM

Continued, in another order:

EC50 (Hepatitis B virus [1]): 300 nM
Compound: O=C1CCN(S(=O)(=O)c2cc(C(=O)Nc3cc(F)c(F)c(F)c3)ccc2F)CC1
selectivity ratio [12]: 24.7
CC50 [14]: 7410 nM

EC50 (Hepatitis B virus [1]): 330 nM
Compound: O=C(Nc1cc(F)c(F)c(F)c1)c1ccc(F)c(S(=O)(=O)N2CC3CC(O)CC3C2)c1 (stereo unspecified)
selectivity ratio [12]: 74.1
CC50 [14]: 22200 nM

EC50 (Hepatitis B virus [1]): 350 nM
Compound: O=C(Nc1cc(F)c(F)c(F)c1)c1ccc(F)c(S(=O)(=O)N2C[C@H]3CC[C@@H]2CC3O)c1 (stereo partly specified)
selectivity ratio [12]: 30.5
CC50 [14]: 10700 nM

EC50 (Hepatitis B virus [1]): 390 nM
Compound: O=C1CC2CN(S(=O)(=O)c3cc(C(=O)Nc4cc(F)c(F)c(F)c4)ccc3F)CC2C1 (stereo unspecified)
selectivity ratio [12]: 48
CC50 [14]: 18700 nM

EC50 (Hepatitis B virus [1]): 220 nM
Compound: O=C(Nc1cc(F)c(F)c(F)c1)c1ccc(F)c(S(=O)(=O)N2C[C@H]3CC[C@@H]2CC3=O)c1
selectivity ratio [12]: 33.7
CC50 [14]: 7410 nM

Source: ChEMBL document CHEMBL5244262, “Discovery and optimization of benzenesulfonamides-based hepatitis B virus capsid modulators via contemporary medicinal chemistry strategies” (Eur J Med Chem, 2020)
